Values of other authors, collected in patent US20240335458A1, “OPHTHALMIC COMPOSITION FOR THE TREATMENT OF VISUAL DISORDERS” (FOODVICA, S.A. DE C.V., priority 2021, published 2024).

Tests used:
[1] = tested on: protein aggregates obtained from surgically removed cataracts; settings: 2 mg/ml protein aggregates, 10 µM and 200 μM, 6-day treatment at room temperature
[2] = tested on: sodium selenite-induced cataract
[3] = tested on: age-related cataract human lens nuclei; settings: 25 mM lanosterol solution, 6 days
[4] = tested on: cataracts; settings: 14 intravitreal injections of lanosterol nanoparticles (final dose 1.4 mg) plus 50 μL drops 3 times a day for 6 weeks, 7 dogs
[5] = tested on: rat lens opacities; settings: 15 mM lanosterol in liposomes
[6] = tested on: natural cataract lens of rabbits; settings: 25 mM lanosterol, 6 days

| SMILES | Macroscopic clearing of protein aggregate solutions [1] | Levels of lipid peroxidation, enzymatic and non-enzymatic antioxidants ([2]; curcumin 75 mg/kg body weight single dose, sodium selenite 15 μM/kg body weight) | aA- and aB-crystallin and Hsp 70 expression ([2]; selenite-induced cataractogenesis) | Reversal of opacification of cataract nuclei [3] | Reduction of cataract stage [4] | Reversal of lens opacities [5] | Lens clarity before and after treatment [6] |
| --- | --- | --- | --- | --- | --- | --- | --- |
| C[C@H](CCCC(C)(C)O)[C@H]1CC[C@H]2[C@@H]3CC=C4C[C@@H](O)CC[C@]4(C)[C@H]3CC[C@]12C [25-hydroxycholesterol] | dramatically cleared the originally dark solutions in a dose-dependent way | – | – | – | – | – | – |
| COc1cc(/C=C/C(=O)CC(=O)/C=C/c2ccc(O)c(OC)c2)ccc1O [curcumin] | – | significant reduction | suppressed aA- and aB-crystallin expression induced by selenite and Hsp 70 | – | – | – | – |
| CC(C)=CCC[C@@H](C)[C@H]1CC[C@@]2(C)C3=C(CC[C@]12C)[C@@]1(C)CC[C@H](O)C(C)(C)[C@@H]1CC3 [lanosterol] | dramatically cleared the originally dark solutions in a dose-dependent way | – | – | did not reverse the opacification | reduce up to two degrees the stage of cataracts | failed to reverse the opacities or prevent progression | solid trend towards reduction of cataract severity |
